Earlier results, collected in PMC3527451, “A Pilot Randomized, Placebo Controlled, Double Blind Phase I Trial of the Novel SIRT1 Activator SRT2104 in Elderly Volunteers” (PLoS ONE, 2012).

Test system: DIO mice and ob/ob mice
Conditions: e.g. DIO and Lep ob/ob obese mice; cited from earlier work

Structure (SMILES): Oc1ccc(/C=C/c2cc(O)cc(O)c2)cc1 [resveratrol, reference compound]
- cholesterol, LDL and triglycerides in preclinical models of dyslipidemia, diabetes and obesity: lower cholesterol, LDL and triglycerides
